According to US20250289813A1, “CDK INHIBITORS, PHARMACEUTICAL COMPOSITIONS, AND THERAPEUTIC APPLICATIONS” (ONQUALITY PHARMACEUTICALS CHINA LTD., priority 2022, published 2025):

Legend:
[1] = target: CDK4/cyclin D1 (Homo sapiens (Human), UniProt P11802); test: CDK4 Caliper Mobility Shift assay; format: biochemical
In short: (§1)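 Caliper mobility-shift kinase assay with FAM-labeled peptide substrate. CDK4/cyclin D1 (15 nM) ran in 20 mM HEPES pH 7.5, 0.01% Triton X-100 at […] ATP; CDK6/cyclin D1 (7.5 nM) in 50 mM HEPES pH 7.5, 0.0015% BRIJ-35 at […] ATP. Compound was pre-incubated 10 min, reactions ran at 28 °C, and IC50 came from percent conversion inhibition.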

[2] = target: CDK6/cyclin D1 (Homo sapiens (Human), UniProt Q00534); test: CDK6 Caliper Mobility Shift assay; format: biochemical
Sequence of CDK6/cyclin D1 (Q00534 whole entry): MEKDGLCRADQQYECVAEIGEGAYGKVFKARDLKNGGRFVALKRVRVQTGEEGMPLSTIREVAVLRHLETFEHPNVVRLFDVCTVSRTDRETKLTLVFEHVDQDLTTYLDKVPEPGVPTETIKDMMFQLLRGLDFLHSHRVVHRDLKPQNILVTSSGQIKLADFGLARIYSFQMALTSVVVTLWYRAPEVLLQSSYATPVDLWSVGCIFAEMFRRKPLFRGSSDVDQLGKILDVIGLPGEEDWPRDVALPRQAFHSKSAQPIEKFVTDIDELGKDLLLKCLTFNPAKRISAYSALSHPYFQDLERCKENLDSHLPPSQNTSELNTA
Sequence of CDK6/cyclin D1 (P24385 whole entry partner): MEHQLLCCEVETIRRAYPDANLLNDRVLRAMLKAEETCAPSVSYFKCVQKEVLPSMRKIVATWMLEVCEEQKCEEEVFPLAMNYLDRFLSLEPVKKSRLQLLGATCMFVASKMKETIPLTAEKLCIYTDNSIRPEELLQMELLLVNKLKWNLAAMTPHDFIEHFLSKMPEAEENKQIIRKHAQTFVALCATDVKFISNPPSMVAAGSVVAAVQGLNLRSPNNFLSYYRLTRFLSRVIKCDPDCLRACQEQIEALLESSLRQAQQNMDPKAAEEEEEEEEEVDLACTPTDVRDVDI
In short: as §1

[3] = test system: MCF-7 human breast cancer cells; test: CELLTITER-GLO luminescent cell viability assay; format: cell-based; details: MCF7, 192 h, MCF-7 cells, 8 days, read-out: EC50 (Effect on Cell Viability)
In short: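 MCF-7 cells grown in EMEM with 10% FBS and insulin, seeded at 3,000 cells/well and left to adhere overnight. Compound exposure lasted 8 days at 37 °C; viability was read by CellTiter-Glo luminescence.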

[4] = test system: COLO205 human colon cancer cells; test: CASPASE-GLO 3/7 apoptosis assay (protection against chemotherapy drug induced cytotoxicity); format: cell-based
Experimental: The CASPASE-GLO 3/7 apoptosis assay was used to evaluate the protective effect of a compound on the cytotoxicity induced by a chemotherapy drug. The apoptosis assay was carried out using COLO205 human colon cancer cells. The cells were grown at 37° C. in a 5% CO2 humidified incubator in PRIM1640 supplemented with 10% FBS and 0.01 mg/mL bovine insulin. The cells were seeded at 4,000 cells/well in a 96-well plate. After incubated overnight, the cells were pretreated with a compound at predetermined concentrations or a vehicle for 16 h, followed by addition of a chemotherapy drug. After incubated for another 48 h, the CASPASE-GLO 3/7 reagent (100 μL/well) was added. The cells were mixed on an orbital shaker for 10 min and incubated at room temperature for 2 h. The 96-well plate was read with an ENVISION reader.

[5] = test system: BALB/c mice; test: Irinotecan-induced diarrhea/constipation mouse model; format: in vivo; details: 4 h before and 8 h after irinotecan (240 mg/kg), Day 7
Experimental: A compound was evaluated in an irinotecan-induced diarrhea/constipation mouse model for its protective effect on the cytotoxicity induced by a chemotherapy drug. On day 0, BALB/c mice (20-25 g, 7-8 weeks of age) were randomly divided into 3 groups (vehicle, irinotecan, and compound treatment) with 10 mice in each group. In the vehicle group, the mice were administered orally with the same medium in the same amount as used in the treatment group for the compound and then injected with the same medium in the same amount as used in the irinotecan group. In the irinotecan group, the mice were administered orally with the same medium in the same amount as used in the treatment group for the compound and then injected with irinotecan (240 mg/kg). In the treatment group, the mice were administrated orally with the compound and then injected with irinotecan (240 mg/kg). The compound was formulated with a 0.5% CMC solution. […]
(§2) On Day 7, the diarrhea grade of each mouse was determined according to the method described in Kurita et al., Cancer Chemother. Pharmacol. 2000, 46, 211-20, the disclosure of which is incorporated herein by reference in its entirety. The diarrhea remission rates were calculated using the formula of Diarrhea remission rate (%)=(diarrhea grade in 5-FU group−diarrhea grade in treatment group)/diarrhea grade in 5-FU group×100%.

[6] = test system: BALB/c mice; test: 5-FU-induced diarrhea mouse model; format: in vivo; details: 8 h before and 4 h after 5-FU (175 mg/kg), day 7
Experimental: A compound was evaluated in a 5-FU-induced diarrhea mouse model for its protective effect on the cytotoxicity induced by the chemotherapy drug 5-FU. On day 0, BALB/c mice (20-25 g, 7-8 weeks of age) were randomly divided into 3 groups (vehicle, 5-FU, and compound treatment) with 10 mice in each group. In the vehicle group, the mice were administered orally with the same medium in the same amount as used in the treatment group for the compound and then injected with the same medium in the same amount as used in the 5-FU group. In the 5-FU group, the mice were administered orally with the same medium in the same amount as used in the treatment group for the compound and then injected with 5-FU (175 mg/kg). In the treatment group, the mice were administrated orally with the compound and then injected with 5-FU (175 mg/kg). The compound was formulated with a 0.5% CMC solution.
as §2, with “day” for “Day”, “Diarrhea” for “The diarrhea”, “group—diarrhea” for “group−diarrhea”

Sequence of CDK4/cyclin D1 (P11802 whole entry): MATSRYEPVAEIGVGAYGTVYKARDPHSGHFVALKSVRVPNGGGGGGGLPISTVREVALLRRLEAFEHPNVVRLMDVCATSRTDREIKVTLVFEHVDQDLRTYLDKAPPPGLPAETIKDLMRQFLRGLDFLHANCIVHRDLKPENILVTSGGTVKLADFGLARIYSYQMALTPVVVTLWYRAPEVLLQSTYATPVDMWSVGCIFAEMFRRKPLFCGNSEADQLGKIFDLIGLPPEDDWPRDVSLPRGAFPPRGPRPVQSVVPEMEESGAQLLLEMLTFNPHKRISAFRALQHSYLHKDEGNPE
Sequence of CDK4/cyclin D1 (P24385 whole entry partner): as the sequence (P24385 whole entry partner) above

SMILES	IC50 [1]	IC50 [2]	EC50 [3]	RPR (relative protection rate) ([4]; compound 0.1 μM, 5-Fu (10 μM))	RPR (relative protection rate) ([4]; compound 1 μM, 5-Fu (10 μM))	RPR (relative protection rate) ([4]; compound 10 μM, 5-Fu (10 μM))	further results
CC(=O)c1c(C)c2cnc(Nc3ccc(N4CCN(S(=O)(=O)NC(=O)OCCO)CC4)cn3)nc2n(C2CCCC2)c1=O [Compound A1, 2-hydroxyethyl ((4-(6-((6-acetyl-8-cyclopentyl-5-methyl-7-oxo-7,8-dihydropyrido[2,3-d]pyrimidin-2-yl)amino)pyridin-3-yl)piperazin-1-yl)sulfonyl)carbamate]	≤ 200 nM	≤ 200 nM	> 10000 nM	13%	82%	68%	RPR (relative protection rate) ([4]; compound 5 μM, 5-Fu (10 μM)): 90%; RPR (relative protection rate) ([4]; compound 100 μM, 5-Fu (10 μM)): 11%; Remission Rate (diarrhea remission rate) ([5]; 5 mg/kg oral): 50%; Remission Rate (diarrhea remission rate) ([5]; 25 mg/kg oral): 70%; Remission Rate (diarrhea remission rate) ([5]; 100 mg/kg oral): 20%
CC(=O)c1c(C)c2cnc(Nc3ccc(N4CCN(S(=O)(=O)NC(=O)[C@H](C)N)CC4)cn3)nc2n(C2CCCC2)c1=O [Compound A6, (S)—N-((4-(6-((6-acetyl-8-cyclopentyl-5-methyl-7-oxo-7,8-dihydropyrido[2,3-d]-pyrimidin-2-yl)amino)pyridin-3-yl)piperazin-1-yl)sulfonyl)-2-aminopropanamide]	≤ 200 nM	≤ 200 nM	≤ 1000 nM	–	–	–	RPR (relative protection rate) ([4]; compound 0.01 μM, Irinotecan (20 μM)): 20%; RPR (relative protection rate) ([4]; compound 0.2 μM, Irinotecan (20 μM)): 36%; RPR (relative protection rate) ([4]; compound 2 μM, Irinotecan (20 μM)): 89%; RPR (relative protection rate) ([4]; compound 20 μM, Irinotecan (20 μM)): 73%; RPR (relative protection rate) ([4]; compound 50 μM, Irinotecan (20 μM)): 57%; Remission Rate (diarrhea remission rate) ([6]; 5 mg/kg oral): 20%; Remission Rate (diarrhea remission rate) ([6]; 50 mg/kg oral): 66%; Remission Rate (diarrhea remission rate) ([6]; 100 mg/kg oral): 33%
CC(=O)c1c(C)c2cnc(Nc3ccc(N4CCN(S(=O)(=O)N5CC(CO)OC5=O)CC4)cn3)nc2n(C2CCCC2)c1=O (centres unmarked) [Compound A12, 3-((4-(6-((6-Acetyl-8-cyclopentyl-5-methyl-7-oxo-7,8-dihydropyrido[2,3-d]-pyrimidin-2-yl)amino)pyridin-3-yl)piperazin-1-yl)sulfonyl)-5-(hydroxymethyl)oxazolidin-2-one]	≤ 200 nM	≤ 200 nM	1000 to 10000 nM	–	–	–	Remission Rate (diarrhea remission rate) ([6]; 10 mg/kg oral): 50%; Remission Rate (diarrhea remission rate) ([6]; 25 mg/kg oral): 90%
CC(=O)NCCOC(=O)NS(=O)(=O)N1CCN(c2ccc(Nc3ncc4c(C)c(C(C)=O)c(=O)n(C5CCCC5)c4n3)nc2)CC1 [Compound A15, 2-Acetamidoethyl ((4-(6-((6-acetyl-8-cyclopentyl-5-methyl-7-oxo-7,8-dihydropyrido[2,3-d]pyrimidin-2-yl)amino)pyridin-3-yl)piperazin-1-yl)sulfonyl)carbamate]	200 to 500 nM	≤ 200 nM	1000 to 10000 nM	28%	84%	71%	Remission Rate (diarrhea remission rate) ([5]; 10 mg/kg oral): 40%; Remission Rate (diarrhea remission rate) ([5]; 50 mg/kg oral): 60%
CC(=O)c1c(C)c2cnc(Nc3ccc(N4CCN(S(=O)(=O)NC(=O)CN)CC4)cn3)nc2n(C2CCCC2)c1=O [Compound A29, N-((4-(6-((6-Acetyl-8-cyclopentyl-5-methyl-7-oxo-7,8-dihydropyrido[2,3-d]-pyrimidin-2-yl)amino)pyridin-3-yl)piperazin-1-yl)sulfonyl)-2-aminoacetamide]	≤ 200 nM	≤ 200 nM	≤ 1000 nM	–	89%	78%	–
CC(=O)c1c(C)c2cnc(Nc3ccc(N4CCN(S(=O)(=O)NC(=O)C5CCCO5)CC4)cn3)nc2n(C2CCCC2)c1=O (centres unmarked) [Compound A39, N-((4-(6-((6-Acetyl-8-cyclopentyl-5-methyl-7-oxo-7,8-dihydropyrido[2,3-d]-pyrimidin-2-yl)amino)pyridin-3-yl)piperazin-1-yl)sulfonyl)tetrahydrofuran-2-carboxamide]	≤ 200 nM	200 to 500 nM	1000 to 10000 nM	–	–	–	RPR (relative protection rate) ([4]; compound 1 μM, Irinotecan (20 μM)): 79%; RPR (relative protection rate) ([4]; compound 10 μM, Irinotecan (20 μM)): 86%
CC(=O)c1c(C)c2cnc(Nc3ccc(N4CCN(S(=O)(=O)NCC(=O)O)CC4)cn3)nc2n(C2CCCC2)c1=O [Compound A44, ((4-(6-((6-Acetyl-8-cyclopentyl-5-methyl-7-oxo-7,8-dihydropyrido[2,3-d]-pyrimidin-2-yl)amino)pyridin-3-yl)piperazin-1-yl)sulfonyl)glycine]	≤ 200 nM	≤ 200 nM	1000 to 10000 nM	–	–	–	RPR (relative protection rate) ([4]; compound 5 μM, 5-Fu (10 μM)): 90%; RPR (relative protection rate) ([4]; compound 20 μM, 5-Fu (10 μM)): 65%
CC(=O)c1c(C)c2cnc(Nc3ccc(N4CCN(S(=O)(=O)NC(=O)OCCNC(=O)[C@H](N)C(C)C)C[C@@H]4C)cn3)nc2n(C2CCCC2)c1=O [Compound A55, 2-((R)-2-Amino-3-methylbutanamido)ethyl (((S)-4-(6-((6-acetyl-8-cyclopentyl-5-methyl-7-oxo-7,8-dihydropyrido[2,3-d]pyrimidin-2-yl)amino)pyridin-3-yl)-3-methylpiperazin-1-yl)sulfonyl)carbamate]	≤ 200 nM	≤ 200 nM	1000 to 10000 nM	38%	–	88%	–
CCS(=O)(=O)N1CCN(c2ccc(Nc3ncc4c(C)c(C(C)=O)c(=O)n(C5CCCC5)c4n3)nc2)CC1 [Compound C2, 6-Acetyl-8-cyclopentyl-2-((5-(4-(ethylsulfonyl)piperazin-1-yl)pyridin-2-yl)-amino)-5-methylpyrido[2,3-d]pyrimidin-7(81)-one]	≤ 200 nM	≤ 200 nM	–	–	–	–	RPR (relative protection rate) ([4]; compound 0.2 μM, 5-Fu (10 μM)): 59%; RPR (relative protection rate) ([4]; compound 2 μM, 5-Fu (10 μM)): 79%; RPR (relative protection rate) ([4]; compound 20 μM, 5-Fu (10 μM)): 87%; Remission Rate (diarrhea remission rate) ([6]; 75 mg/kg oral): 50%; Remission Rate (diarrhea remission rate) ([5]; 75 mg/kg oral): 30%
